Assay results reported in patent publication US8389512B2 (priority 2008, dated 2013).

Legend:
[1] = 24 hr in-vivo study: meloxicam plasma concentration and pharmacokinetics after oral (gavage) administration to male rats; settings: for Time to Reach 0.59 μg/ml: calculated by interpolation of time vs. concentration data
Text: Male Sprague-Dawley rats, 250-300 g, received with a surgically implanted jugular catheter in place from (Harlan or Taconic Laboratories, USA). Animals were housed one per polycarbonate cage utilizing individual cage cards, with free access to food and water in accordance with NIH guidelines. Animals were quarantined at least 24 hrs after arrival prior to use and patency of the implanted catheter determined on the day of the test. Environmental controls for the animal room were set to maintain 18 to 26° C., a relative humidity of 30 to 70%, a minimum of 10 air changes/hour, and a 12-hour light/12-hour dark cycle. Rats historically have been used in safety evaluation and PK screening studies and are recommended by appropriate regulatory agencies. […] Each rat was weighed and the dose volume adjusted accordingly so that the effect of weight variability on results of study was eliminated and that each rat received 1 mg/kg dose.
(§1) Pharmacokinetic parameters were calculated from individual animal samples using appropriate software (PK Solutions 2.0, Summit Research Services, Montrose, Calif., USA).

[2] = 4 hr in-vivo study: meloxicam plasma concentration after oral delivery to rats; settings: rat
Text: Male Sprague-Dawley rats, 250-300 g, received with a surgically implanted jugular catheter in place from (Harlan or Taconic Laboratories, USA). Animals were housed one per polycarbonate cage utilizing individual cage cards, with free access to food and water in accordance with NIH guidelines. Animals were quarantined at least 24 hrs after arrival prior to use and patency of the implanted catheter determined on the day of the test. Environmental controls for the animal room were set to maintain 18 to 26° C., a relative humidity of 30 to 70%, a minimum of 10 air changes/hour, and a 12-hour light/12-hour dark cycle. […] Each rat was weighed and the dose volume adjusted accordingly so that the effect of weight variability on results of study was eliminated and that each rat received 1 mg/kg dose.
Briefly, using a gradient elution with a Waters Symmetry C18 column (Waters Inc. USA), LCMS with selective reaction monitoring, protein precipitation of the plasma sample using acetonitrile where an LOQ of 50 ng/ml was achieved. Pharmacokinetic parameters were calculated from individual animal samples using appropriate software (PK Solutions 2.0, Summit Research Services, Montrose, Calif., USA).

[3] = IV comparator group, meloxicam pharmacokinetics in rats; assay type: in vivo; settings: Sprague-Dawley, rat, plasma, 1 mg/kg, PEG400:DMSO formulation
Method: In addition, IV comparator group of 5 rats was used to calculate MAT (mean absorption time) and ka (absorption rate constant) parameters since such parameters cannot be determined for the oral groups.
200 micro liters of blood withdrawn from the indwelling intravenous catheter at 5 minutes, 15 minutes, 30 minutes, 45 minutes, 1, 2, 4, 8, 12 and 24 hours to provide sufficient amount of serum for analysis.
as §1

[4] = cited from earlier work
[5] = Accelerated stability testing of cocrystals (PXRD, FTIR); settings: 2 months at 40° C.
[6] = male, Sprague-Dawley, rat, plasma, po, 1 mg/kg
[7] = male rats, 1 mg/kg oral, mean N = 5

Cc1cnc(NC(=O)C2=C(O)c3ccccc3S(=O)(=O)N2C)s1 [Meloxicam, (8E)-8-[hydroxy-[(5-methyl-1,3-thiazol-2-yl)amino]methylidene]-9-methyl-10,10-dioxo-10λ^6-thia-9-azabicyclo[4.4.0]deca-1,3,5-trien-7-one, reference compound]
Time to Reach 0.59 μg/ml ([1]; male rats, 1 mg/kg oral): 270.0 min | AUC [1, 6]: 10000 ng·h/mL | Cmax [1, 6]: 590 ng/mL | MRT [1, 6]: 21.8 h | bioavailability [1, 6]: 15.7% | concentration at 0.0833 hour [1, 6]: 20 ng/mL | concentration at 0.25 hour [1, 6]: 190 ng/mL | concentration at 0.5 hour [1, 6]: 280 ng/mL | concentration at 0.75 hour [1, 6]: 320 ng/mL | concentration at 1 hour [1, 6]: 390 ng/mL | concentration at 2 hour [1, 6]: 510 ng/mL | concentration at 4 hour [1, 6]: 540 ng/mL | concentration at 8 hour [1, 6]: 530 ng/mL | concentration at 12 hour [1, 6]: 460 ng/mL | concentration at 24 hour [1, 6]: 240 ng/mL | concentration at 0 min ([2]; male, Sprague-Dawley, plasma, 1 mg/kg, time 0 min): 0 ng/mL | concentration at 15 min ([2]; male, Sprague-Dawley, plasma, 1 mg/kg, time 15 min): 8190 ng/mL | concentration at 30 min ([2]; male, Sprague-Dawley, plasma, 1 mg/kg, time 30 min): 14800 ng/mL | concentration at 45 min ([2]; male, Sprague-Dawley, plasma, 1 mg/kg, time 45 min): 19600 ng/mL | concentration at 60 min ([2]; male, Sprague-Dawley, plasma, 1 mg/kg, time 60 min): 24000 ng/mL | concentration at 120 min ([2]; male, Sprague-Dawley, plasma, 1 mg/kg, time 120 min): 30200 ng/mL | concentration at 240 min ([2]; male, Sprague-Dawley, plasma, 1 mg/kg, time 240 min): 39400 ng/mL | AUC ([3]; read-out: AUC (area under the plasma concentration-time curve at 24 h)): 63600 ng·h/mL | MRT ([3]; read-out: MRT (mean residence time)): 14.7 h | solubility in methanol ([4]; methanol): very slightly soluble | solubility in strong acids and bases ([4]; strong acids and bases, compared with water): higher solubility | solubility in water ([4]; water): practically insoluble

Meloxicam:Aspirin Cocrystal (1:1) [Cocrystal 73]
Stability in accelerated stability testing (PXRD profiles) ([5]; 75% RH open and closed vials, and 6 months at 40° C. open vial): stable for 6 months | Stability in accelerated stability testing (FTIR profiles) ([5]; 75% RH, vials open or closed): stable for 2 months | meloxicam plasma concentration ([1]; male rats, 1 mg/kg oral, N = 5, 0.0833 hour): 0.13 µg/mL | meloxicam plasma concentration ([1]; male rats, 1 mg/kg oral, N = 5, 0.25 hour): 0.87 µg/mL | meloxicam plasma concentration ([1]; male rats, 1 mg/kg oral, N = 5, 0.5 hour): 1.14 µg/mL | meloxicam plasma concentration ([1]; male rats, 1 mg/kg oral, N = 5, 0.75 hour): 1.37 µg/mL | meloxicam plasma concentration ([1]; male rats, 1 mg/kg oral, N = 5, 1 hour): 1.74 µg/mL | meloxicam plasma concentration ([1]; male rats, 1 mg/kg oral, N = 5, 2 hour): 2.49 µg/mL | meloxicam plasma concentration ([1]; male rats, 1 mg/kg oral, N = 5, 4 hour): 2.51 µg/mL | meloxicam plasma concentration ([1]; male rats, 1 mg/kg oral, N = 5, 8 hour): 2.34 µg/mL | meloxicam plasma concentration ([1]; male rats, 1 mg/kg oral, N = 5, 12 hour): 1.83 µg/mL | meloxicam plasma concentration ([1]; male rats, 1 mg/kg oral, N = 5, 24 hour): 1.16 µg/mL | AUC (area under the plasma concentration-time curve at 24 h) [1, 7]: 44100 ng·h/mL | Cmax (peak plasma concentration) [1, 7]: 2700 ng/mL | F (bioavailability) [1, 7]: 69.4% | Time to Reach 0.59 μg/ml ([1]; male rats, 1 mg/kg oral): 10.6 min | meloxicam plasma concentration ([2]; time 0 min): 0 µg/mL | meloxicam plasma concentration ([2]; time 15 min): 26.94 µg/mL | meloxicam plasma concentration ([2]; time 30 min): 42.67 µg/mL | meloxicam plasma concentration ([2]; time 45 min): 50.18 µg/mL | meloxicam plasma concentration ([2]; time 60 min): 52.67 µg/mL | meloxicam plasma concentration ([2]; time 120 min): 59.23 µg/mL | meloxicam plasma concentration ([2]; time 240 min): 60.85 µg/mL
